What was measured:
Format in all cases: in vivo
[1] = system: Triticum aestivum (TRZAS); assay: Post-emergence crop plant compatibility, greenhouse pot test; conditions: crop plant, post-emergence, 1.25 g/ha
Experimental: (§1) Seeds of monocotyledonous and dicotyledonous weeds and crop plants were placed in sandy loam in plastic or wood-fibre pots, covered with soil and cultivated in a greenhouse under controlled growth conditions. 2 to 3 weeks after sowing, the test plants were treated at the one-leaf stage. The compounds of the invention, formulated in the form of wettable powders (WP) or as emulsion concentrates (EC), were then sprayed onto the green parts of the plants as aqueous suspension or emulsion with addition of 0.5% additive at a water application rate of 600 l/ha (converted). After the test plants had been kept in the greenhouse under optimum growth conditions for about 3 weeks, the activity of the preparations was rated visually in comparison to untreated controls. For example, 100% activity=the plants have died, 0% activity=like control plants.
The observed effects on selected crop plants are reported here in comparison to the untreated controls (values in %).

[2] = system: Digitaria sanguinalis (DIGSA); assay: Post-emergence herbicidal action, greenhouse pot test
Experimental: as §1

[3] = system: Polygonum convolvulus (POLCO); assay: as above; conditions: 20 g/ha
Experimental: as §1

[4] = system: Amaranthus retroflexus (AMARE); assay: as above
Experimental: as §1

[5] = system: Pharbitis purpurea (PHBPU); assay: as above
Experimental: as §1

Veronica persica (VERPE) = assay: as above
Experimental: as §1

Viola tricolor (VIOTR) = assay: as above
Experimental: as §1

[6] = system: Abutilon theophrasti (ABUTH); assay: as above
Experimental: as §1

Bassia scoparia (KCHSC) = assay: as above
Experimental: as §1

[7] = system: Echinochloa crus-galli (ECHCG); assay: as above
Experimental: as §1

[8] = system: Tripleurospermum inodorum (MATIN); assay: as above; conditions: 20 g/ha
Experimental: as §1

Setaria viridis (SETVI) = assay: as above
Experimental: as §1

## Cn1c(C(F)(F)F)cc(=O)n(-c2cc(Oc3cc(F)ccc3OCC(=O)OCC3CC3)c(Br)cc2F)c1=O [I.24-1]
[1]
  Post-emergence effect at 1.25 g/ha against TRZAS in %: 20%
[2]; 1.25 g/ha
  Post-emergence effect at 1.25 g/ha against DIGSA in %: 80%
[2]; 5 g/ha
  Post-emergence effect at 5 g/ha against DIGSA in %: 100%
[2]; 20 g/ha
  Post-emergence effect at 20 g/ha against DIGSA in %: 100%
[3]
  Post-emergence effect at 20 g/ha against POLCO in %: 100%
[4]; 1.25 g/ha
  Post-emergence effect at 1.25 g/ha against AMARE in %: 100%
[4]; 5 g/ha
  Post-emergence effect at 5 g/ha against AMARE in %: 100%
[4]; 20 g/ha
  Post-emergence effect at 20 g/ha against AMARE in %: 100%
[5]; 1.25 g/ha
  Post-emergence effect at 1.25 g/ha against PHBPU in %: 80%
[5]; 5 g/ha
  Post-emergence effect at 5 g/ha against PHBPU in %: 100%
[5]; 20 g/ha
  Post-emergence effect at 20 g/ha against PHBPU in %: 100%
Veronica persica (VERPE); 5 g/ha
  Post-emergence effect at 5 g/ha against VERPE in %: 100%
Veronica persica (VERPE); 20 g/ha
  Post-emergence effect at 20 g/ha against VERPE in %: 100%
Viola tricolor (VIOTR); 5 g/ha
  Post-emergence effect at 5 g/ha against VIOTR in %: 100%
Viola tricolor (VIOTR); 20 g/ha
  Post-emergence effect at 20 g/ha against VIOTR in %: 100%
[6]; 1.25 g/ha
  Post-emergence effect at 1.25 g/ha against ABUTH in %: 100%
[6]; 5 g/ha
  Post-emergence effect at 5 g/ha against ABUTH in %: 100%
[6]; 20 g/ha
  Post-emergence effect at 20 g/ha against ABUTH in %: 100%
Bassia scoparia (KCHSC); 1.25 g/ha
  Post-emergence effect at 1.25 g/ha against KCHSC in %: 100%
Bassia scoparia (KCHSC); 5 g/ha
  Post-emergence effect at 5 g/ha against KCHSC in %: 100%
Bassia scoparia (KCHSC); 20 g/ha
  Post-emergence effect at 20 g/ha against KCHSC in %: 100%
[7]; 5 g/ha
  Post-emergence effect at 5 g/ha against ECHCG in %: 80%
[7]; 20 g/ha
  Post-emergence effect at 20 g/ha against ECHCG in %: 100%
[8]
  Post-emergence effect at 20 g/ha against MATIN in %: 80%
Setaria viridis (SETVI); 1.25 g/ha
  Post-emergence effect at 1.25 g/ha against SETVI in %: 90%
Setaria viridis (SETVI); 5 g/ha
  Post-emergence effect at 5 g/ha against SETVI in %: 100%
Setaria viridis (SETVI); 20 g/ha
  Post-emergence effect at 20 g/ha against SETVI in %: 100%

## Cn1c(C(F)(F)F)cc(=O)n(-c2cc(Oc3ccccc3OCC(=O)OC3CCCCC3)c(Cl)cc2F)c1=O [a-29, reference compound]
Veronica persica (VERPE); Table B4 comparison, application rate 1.25 g/ha
  VERPE (efficacy in %): 90%

## Cn1c(C(F)(F)F)cc(=O)n(-c2cc(Oc3ccccc3OCC(=O)OC3CCCCCC3)c(Cl)cc2F)c1=O [reference compound]
[7]; Table B5 comparison, application rate 1.25 g/ha
  ECHCG (efficacy in %): 80%
